Laboratory results taken from patent publication US9101562B2, “Additives for chlorine dioxide-containing compositions” (BASF CORPORATION, priority 2010, dated 2015).
Like-named read-outs stand apart in the source and are kept apart here. Where a SMILES comes first, the peptide text is derived from it.

Experiment: Chlorine dioxide compatibility: ClO2 decrease in 200 ppm ClO2 test samples containing an additive (UV/Vis absorption or titration)
Format: physicochemical
Conditions: for Chlorine dioxide (ppm): 200 ppm ClO2 composition with sucralose 0.5 wt. %
[1] = Table 2, 200 ppm ClO2 test sample, single additive at listed wt. %, interpolated to 8 hours
[2] = Table 2, […], interpolated to 8 hours
[3] = Table 3, 200 ppm ClO2 test sample, single additive at listed wt. %, interpolated to 8 hours
[4] = FIG. 1A, 200 ppm ClO2, single sweetener at 0.5 wt. %
[5] = Table 3, […], interpolated to 8 hours

Compound: COc1ccc(C=O)cc1OC [compound 30, Methyl Vanillin]
- ClO2 decrease @ 8 hrs: 100%

Compound: CC(C)[C@@H]1CC[C@@H](C)CC1=O [compound 4, Menthone]
- ClO2 decrease @ 8 hrs [1]: 4%

Compound: CC(C)[C@@H]1CC[C@@H](C)C[C@H]1O [Comp. 1, L-menthol]
- ClO2 decrease @ 8 hrs [1]: 1%

Compound: N[C@@H](CCC(=O)O)C(=O)O [compound 21, l-Glutamic Acid]
- ClO2 decrease @ 8 hrs [2]: 1%

Compound: CCNC(=O)C1CC(C)CCC1C(C)C (stereo not shown) [compound 5, Ethyl Menthane Carboxamide]
- ClO2 decrease @ 8 hrs [1]: 5%

Compound: CCO [compound 17, Ethanol]
- ClO2 decrease @ 8 hrs [1]: 4%

Compound: O.O.O=C1NS(=O)(=O)c2ccccc21.[Na] [compound 9, Sodium saccharin Dihydrate]
- ClO2 decrease @ 8 hrs: 3%
- chlorine dioxide concentration versus time behaviour: steep immediate declines in chlorine dioxide concentration, followed by much more gradual declines

Compound: CC(C)=O [compound 19, Acetone]
- ClO2 decrease @ 8 hrs: 0.04%

Compound: CC12CCC(CC1)C(C)(C)O2 [compound 6, Eucalyptol]
- ClO2 decrease @ 8 hrs [1]: 13%

Compound: O=C1O[C@H]([C@@H](O)CO)C(O)=C1O [compound 28, Ascorbic Acid]
- ClO2 decrease @ 8 hrs [3]: 100%

Compound: CCOC(C)=O [compound 16, Ethyl Acetate]
- ClO2 decrease @ 8 hrs: 3%

Compound: OCc1ccccc1 [compound 12, Benzyl Alcohol]
- ClO2 decrease @ 8 hrs [1]: 8%

Compound: CC(O)CO (stereo not shown) [compound 13, Propylene Glycol]
- ClO2 decrease @ 8 hrs [2]: 1%

Compound: COC(=O)[C@H](Cc1ccccc1)NC(=O)[C@@H](N)CC(=O)O [compound 7, Aspartame] (H-Asp-Phe-OMe)
- chlorine dioxide concentration versus time behaviour [4]: steep immediate declines in chlorine dioxide concentration, followed by much more gradual declines
- ClO2 decrease @ 8 hrs [1]: 2%

Compound: OCC(O)CO [compound 15, Glycerol]
- ClO2 decrease @ 8 hrs [1]: 1%

Compound: t-Cinnamaldehyde [compound 26]
- ClO2 decrease @ 8 hrs [5]: 37%

Compound: OC[C@H]1O[C@H](O[C@]2(CCl)O[C@H](CCl)[C@@H](O)[C@@H]2O)[C@H](O)[C@@H](O)[C@H]1Cl [compound 10, Sucralose]
- chlorine dioxide concentration versus time behaviour [4]: steep immediate declines in chlorine dioxide concentration, followed by much more gradual declines
- ClO2 decrease @ 8 hrs [1]: 9%
- chlorine dioxide present at 8 hours (interpolation of the data at 0.88 hours and 15.35 hours): 166.5 ppm
- Chlorine dioxide (ppm) (time 0.25 hours): 183 ppm
- Chlorine dioxide (ppm) (time 0.88 hours): 168 ppm
- Chlorine dioxide (ppm) (time 15.35 hours): 165 ppm
- Chlorine dioxide (ppm) (time 22.62 hours): 165 ppm
- Chlorine dioxide (ppm) (time 70.58 hours): 163 ppm

Compound: CC1=CC(=O)NS(=O)(=O)O1 [compound 32, Acesulfame Potassium]
- ClO2 decrease @ 8 hrs: 100%
- chlorine dioxide concentration versus time behaviour: consumed all of the chlorine dioxide within about the first hour

Compound: CC12CCC(CC1=O)C2(C)C (stereo not shown) [Comp. 3, Camphor]
- ClO2 decrease @ 8 hrs [1]: 2%

Compound: C/C=C/C=C/C(=O)[O-].[K+] [compound 35, Potassium Sorbate]
- ClO2 decrease @ 8 hrs: 99%

Compound: CC=Cc1ccc(OC)cc1 [compound 31, Anethole]
- ClO2 decrease @ 8 hrs [5]: 100%

Compound: C/C=C/C=C/C(=O)O [compound 29, Sorbic Acid]
- ClO2 decrease @ 8 hrs [3]: 100%

Compound: NCCO [compound 38, Monoethanolamine]
- ClO2 decrease @ 8 hrs: 92%

Compound: O=Cc1ccccc1 [compound 2, Benzaldehyde]
- ClO2 decrease @ 8 hrs [2]: 1%
